Measured values as given in PubChem BioAssay (NCI).
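Growth conditions: 96-well plates. Treatment: test compound, 48 hours, 5 concentrations. Analysis: linear interpolation between bracketing concentrations; unreached endpoints set to highest concentration. Here, GI50 denotes the concentration required for 50% inhibition of growth. TGI: concentration producing complete growth inhibition.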

Tests used:
Experiment in all cases: NCI tumour cell line growth inhibition, 48 h
UO-31 renal = tested on: UO-31 renal
OVCAR-5 ovarian = tested on: OVCAR-5 ovarian
MCF7 breast = tested on: MCF7 breast
RPMI-8226 leukemia = tested on: RPMI-8226 leukemia
SF-268 CNS = tested on: SF-268 CNS
NCI-H23 lung = tested on: NCI-H23 lung
TK-10 renal = tested on: TK-10 renal
HL-60(TB) leukemia = tested on: HL-60(TB) leukemia
K-562 leukemia = tested on: K-562 leukemia
IGROV1 ovarian = tested on: IGROV1 ovarian

| SMILES | GI50 (UO-31 renal) | TGI (UO-31 renal) | GI50 (OVCAR-5 ovarian) | TGI (OVCAR-5 ovarian) | GI50 (MCF7 breast) | TGI (MCF7 breast) | GI50 (RPMI-8226 leukemia) | TGI (RPMI-8226 leukemia) | GI50 (SF-268 CNS) | TGI (SF-268 CNS) | GI50 (NCI-H23 lung) | TGI (NCI-H23 lung) | GI50 (TK-10 renal) | TGI (TK-10 renal) | GI50 (HL-60(TB) leukemia) | TGI (HL-60(TB) leukemia) | GI50 (K-562 leukemia) | TGI (K-562 leukemia) | GI50 (IGROV1 ovarian) | TGI (IGROV1 ovarian) |
| --- | --- | --- | --- | --- | --- | --- | --- | --- | --- | --- | --- | --- | --- | --- | --- | --- | --- | --- | --- | --- |
| COc1ccc(-c2cnnn2-c2nonc2-n2cccc2)cc1OC | 6.27 µM | > 100 µM | 17.8 µM | > 100 µM | 3.17 µM | > 100 µM | 4.85 µM | > 100 µM | 8.06 µM | > 100 µM | 4.09 µM | > 100 µM | 22.6 µM | > 100 µM | 3.09 µM | 15.4 µM | 1370 nM | > 100 µM | 5.13 µM | > 100 µM |
| CCn1cc(/C=C2\Oc3cc(OCC#N)ccc3C2=O)c2cc(OC)ccc21 | 0.669 µM | > 100 µM | 1.41 µM | > 100 µM | 0.209 µM | > 100 µM | 0.214 µM | > 72.5 µM | 1.48 µM | > 55.6 µM | 0.553 µM | > 80.8 µM | 18.1 µM | > 64.1 µM | 0.0872 µM | 0.903 µM | 88.8 nM | > 100 µM | 0.509 µM | > 100 µM |
| COc1ccc(-c2nc(-c3nc4cc(Cl)c(F)cc4[nH]3)c3ccccn23)cc1 | 2.62 µM | 35.7 µM | > 100 µM | > 100 µM | 4.57 µM | > 100 µM | 3.02 µM | > 100 µM | 9.11 µM | > 100 µM | 29.1 µM | > 100 µM | 5.25 µM | > 100 µM | 4.97 µM | > 100 µM | 4840 nM | > 100 µM | 4.91 µM | > 100 µM |
| O=C1/C(=C\c2ccco2)Oc2ccccc21 | – | > 100 µM | – | > 100 µM | – | > 100 µM | – | > 100 µM | – | > 100 µM | – | > 100 µM | – | > 100 µM | – | > 100 µM | – | > 100 µM | – | > 100 µM |
| O=C(c1ccc2ccccc2c1)c1nc2cc(F)ccc2[n+]([O-])c1C(F)(F)F | 9.42 µM | 48.8 µM | 23.1 µM | 48.9 µM | 35.6 µM | > 100 µM | 20.1 µM | 53.7 µM | 18.5 µM | 38.1 µM | 13 µM | 29.1 µM | 28.5 µM | 92.2 µM | 6.68 µM | 24.9 µM | 2800 nM | 15.4 µM | 8.36 µM | 21.6 µM |
| COc1ccc(C(=O)c2sc3nc(-c4ccccc4OC)ccc3c2N)cc1OC | 5.26 µM | > 100 µM | > 100 µM | > 100 µM | 4.75 µM | > 100 µM | 2.7 µM | > 100 µM | 11.9 µM | > 100 µM | 50.1 µM | > 100 µM | 4.87 µM | 33.4 µM | 4.07 µM | > 100 µM | 5100 nM | > 100 µM | 20.3 µM | > 100 µM |
